Laboratory results from ChEMBL document CHEMBL5316365, “Anti-Neuroinflammatory Meroterpenoids from a Chinese Collection of the Brown Alga Sargassum siliquastrum” (J Nat Prod, 2023).
Activity calls are given as the source filed them. The rule behind the calls is not given here.

Key:
[1] = Cytotoxicity against mouse BV-2 cells incubated for 24 hrs by MTT assay; assay type: toxicity, cell-based
BV-2 [2] = assay: Anti-neuroinflammatory activity in LPS-induced mouse BV-2 cells assessed as inhibition of NO production pretreated for 4 hrs followed by LPS stimulation for 24 hrs by griess reagent based assay; assay type: functional, cell-based
BV-2 [3] = assay: Antineuroinflammatory activity in LPS-induced mouse BV-2 cells assessed as decrease in TNFalpha protein level pretreated for 4 hrs followed by LPS stimulation for 24 hrs by ELISA; assay type: functional, cell-based; settings: dose 2.5-10 µM, time 28.0 hrs
[4] = target: Transcription factor p65 (Mus musculus) (UniProt Q04207); assay: Inhibition of NF-kappaB p65 translocation from cytosol to nucleus in LPS-induced mouse BV-2 cells at 5 to 10 uM pretreated for 4 hrs followed by LPS stimulation and measured after 24 hrs by Western blot analysis; assay type: cell-based; settings: dose 5-10 µM, time 28.0 hrs
Transcription factor p65 (Mus musculus), sequence (Q04207 whole entry): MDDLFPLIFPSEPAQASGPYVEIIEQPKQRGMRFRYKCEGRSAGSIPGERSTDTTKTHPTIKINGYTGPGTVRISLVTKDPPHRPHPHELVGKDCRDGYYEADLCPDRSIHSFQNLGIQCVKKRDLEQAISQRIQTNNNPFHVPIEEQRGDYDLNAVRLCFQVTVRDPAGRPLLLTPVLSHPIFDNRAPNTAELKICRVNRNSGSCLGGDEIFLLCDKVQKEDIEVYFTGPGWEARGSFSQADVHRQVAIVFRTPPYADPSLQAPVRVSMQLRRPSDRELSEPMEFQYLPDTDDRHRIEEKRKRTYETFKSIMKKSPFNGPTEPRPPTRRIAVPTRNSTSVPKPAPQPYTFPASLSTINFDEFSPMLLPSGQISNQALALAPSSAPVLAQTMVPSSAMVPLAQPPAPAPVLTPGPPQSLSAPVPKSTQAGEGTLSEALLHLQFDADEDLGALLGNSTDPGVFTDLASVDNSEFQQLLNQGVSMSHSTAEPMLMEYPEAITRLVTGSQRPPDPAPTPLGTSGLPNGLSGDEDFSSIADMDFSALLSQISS

BV-2 [5] = assay: Effect on NF-kbeta p65 total protein level in mouse BV-2 cells at 5 to 10 uM pretreated for 4 hrs followed by LPS stimulation and measured after 24 hrs by Western blot analysis; assay type: functional, cell-based; settings: dose 5-10 µM, time 28.0 hrs
BV-2 [6] = assay: Antineuroinflammatory activity in LPS-induced mouse BV-2 cells assessed as downregulation of NF-kappaB p65 protein expression in nucleus at 5 to 10 uM pretreated for 4 hrs followed by LPS stimulation and measured after 24 hrs by Western blot analysis; assay type: functional, cell-based; settings: dose 5-10 µM, time 28.0 hrs
BV-2 [7] = assay: Antineuroinflammatory activity in LPS-induced mouse BV-2 cells assessed as upregulation of IkappaB protein level in nucleus at 5 to 10 uM pretreated for 4 hrs followed by LPS stimulation and measured after 24 hrs by Western blot analysis; assay type: functional, cell-based; settings: dose 5-10 µM, time 28.0 hrs
BV-2 [8] = assay: Antineuroinflammatory activity in LPS-induced mouse BV-2 cells assessed as decrease in IL-6 mRNA level preincubated for 4 hrs followed by LPS stimulation and measured after 6 hrs by RT-PCR method; assay type: functional, cell-based; settings: dose 2.5-10 µM, time 10.0 hrs
[9] = target: Transcription factor p65 (Mus musculus) (UniProt Q04207); assay: Inhibition of NF-kappaB p65 translocation from cytosol to nucleus in LPS-induced mouse BV-2 cells at 2.5 to 10 uM pretreated for 4 hrs followed by LPS stimulation and measured after 24 hrs by immunofluorescence analysis; assay type: cell-based; settings: dose 2.5-10 µM, time 28.0 hrs
BV-2 [10] = assay: Antineuroinflammatory activity in LPS-induced mouse BV-2 cells assessed as decrease in IL-6 protein level pretreated for 4 hrs followed by LPS stimulation for 24 hrs by ELISA; assay type: functional, cell-based; settings: dose 2.5-10 µM, time 28.0 hrs
BV-2 [11] = assay: Antineuroinflammatory activity in LPS-induced mouse BV-2 cells assessed as decrease in TNFalpha mRNA level preincubated for 4 hrs followed by LPS stimulation and measured after 6 hrs by RT-PCR method; assay type: functional, cell-based; settings: dose 2.5-10 µM, time 10.0 hrs
BV-2 [12] = assay: Antineuroinflammatory activity in LPS-induced mouse BV-2 cells assessed as decrease in IL-1beta mRNA level preincubated for 4 hrs followed by LPS stimulation and measured after 6 hrs by RT-PCR method; assay type: functional, cell-based; settings: dose 2.5-10 µM, time 10.0 hrs
BV-2 [13] = assay: Antineuroinflammatory activity in LPS-induced mouse BV-2 cells assessed as decrease in IL-1beta protein level pretreated for 4 hrs followed by LPS stimulation for 24 hrs by ELISA; assay type: functional, cell-based; settings: dose 2.5-10 µM, time 28.0 hrs
BV-2 [14] = assay: Antineuroinflammatory activity in LPS-induced mouse BV-2 cells assessed as downregulation of IKK protein level in nucleus at 5 to 10 uM pretreated for 4 hrs followed by LPS stimulation and measured after 24 hrs by Western blot analysis; assay type: functional, cell-based; settings: dose 5-10 µM, time 28.0 hrs

SMILES	IC50 (BV-2 [2]) [µM]	CC50 at 24 h [1] [µM]	other results
CC(C)=CC(CO)/C(=C/CC/C(C)=C/CC[C@]1(C)CCc2cc(O)cc(C)c2O1)CO (some centres not stated)	5	> 50	–
C=C(CC/C=C(\C)[C@H](O)[C@@H](O)C=C(C)C)C(=O)CC[C@]1(C)CCc2cc(O)cc(C)c2O1	19	> 50	–
CC(=O)/C=C/C/C(C)=C/CC[C@]1(C)CCc2cc(O)cc(C)c2O1	2	> 50	Activity (BV-2 [3]): Dose-Dependent Effect; inhibition [4]: Active; Activity (BV-2 [5]): inactive; Activity (BV-2 [6]): Active; Activity (BV-2 [7]): Active; Activity (BV-2 [8]): Dose-Dependent Effect; inhibition [9]: Active; Activity (BV-2 [10]): Dose-Dependent Effect; Activity (BV-2 [11]): Dose-Dependent Effect; Activity (BV-2 [12]): Dose-Dependent Effect; Activity (BV-2 [13]): Dose-Dependent Effect; Activity (BV-2 [14]): Active
C/C(=C\CC[C@]1(C)CCc2cc(O)cc(C)c2O1)CC/C=C(\C)C(=O)/C=C/C(C)(C)O	13	> 50	–
C/C(=C\CC[C@]1(C)CCc2cc(O)cc(C)c2O1)CC/C=C(\C)C(=O)C(=O)CC(C)C	8	> 50	–
C/C(=C\CC[C@]1(C)CCc2cc(O)cc(C)c2O1)CC/C=C(\C)C(=O)/C=C/C(C)(C)OO	29	> 50	–

Further lines, with some results ahead:

IC50 (BV-2 [2]) [µM]	SMILES	CC50 at 24 h [1] [µM]	other results
25	CC(C)=C[C@H](O)[C@@H](O)/C(C)=C/CC/C(C)=C/CC[C@]1(C)CCc2cc(O)c(C)c(C)c2O1	> 50	–
6	CC(C)=CC(O)C(=O)/C(C)=C/[C@H](O)C/C(C)=C/CC[C@]1(C)CCc2cc(O)cc(C)c2O1 (some centres not stated)	> 50	–
> 30	CC(C)=CC(=O)C(=O)/C(C)=C/CC/C(C)=C/CC[C@]1(C)CCc2cc(O)cc(C)c2O1	> 50	–
> 30	CC(C)=CC(=O)C/C(C)=C/CC/C(C)=C/CC[C@]1(C)CCc2cc(O)cc(C)c2O1	> 50	–
